Entries after “also recorded” stand apart in the source; their conditions may differ. Residues, ends and D or L forms follow the SMILES beside them.
How the values were obtained:
BAEC = assay: MPO-mediated BAEC injury (cell morphology); format: cell-based, Bovine; conditions: 20 min
SCD mice = assay: WBC counts in SCD mice (cytometry); format: in vivo; conditions: SCD mice treated for three weeks
Description: MPO improves vascular function in SCD mice. To determine whether inhibiting MPO improves vascular function and/or reduces inflammation in vivo, SCD mice were treated with KYC for three weeks. […] Such physiological and structural changes are consistent with immunofluorescent studies showing that chlorotyrosine and MPO levels are reduced in the aortas of KYC-treated SCD mice compared with non-treated SCD mice (Fig. 13). High WBC counts are indicative of on-going inflammation in SCD and predictive of future vaso-occlusive events. Accordingly, WBC levels were quantified in the SCD mice using standard cytometry assays.

[1] = system: OVA-sensitized C57BL/6J mice; assay: OVA murine model of experimentally-induced asthma (lung histology); format: in vivo; conditions: 0.3 mg/kg every other day for 10 days
From the text: Murine Model of Experimentally-Induced Asthma. C57BL/6J mice (12-14 wk old) from Jackson Laboratory (Bar Harbor, ME) were housed in sterile autoclavable microisolation cages and fed standard laboratory mouse chow and water ad libitum. All protocols were approved by the Institutional Animal Care and Use Committee (IACUC) of the Medical College of Wisconsin.
C57BL/6J mice were divided into three groups; a control group (Control), an ovalbumin (OVA)-sensitized group and an OVA-sensitized group treated with KYC. OVA sensitization was achieved using a modification of a protocol previously described by de Siqueira et al^15 (Fig. 1). […] When mice inhale aerosolized OVA, robust allergic responses are routinely observed.
Briefly, on day one, mice were anesthetized (halothane; Halocarbon Laboratories, River Edge, NJ) and a heat-denatured OVA fragment (∼80 mg, 5 × 2 × 2 mm) was implanted subcutaneously in the dorsal aspect of the neck. The incision was closed with stainless steel clips and the mouse was allowed to recover. Implantation of the heat-denatured OVA fragment initiates sensitization. On day fifteen, the implanted mice were exposed to aerosolized OVA (6% in PBS) for 30 minutes every other day for ten days. Twenty-four hours after the last OVA challenge, the mice were deeply anesthetized (halothane), sacrificed by exsanguination and the lungs removed for analysis. […]

C57BL/6J mice = assay: Acute lung injury: pulmonary retention of Q-dot labeled EMPs; format: in vivo; conditions: pretreatment and treatment of EMP-injected mice
Description: KYC Inhibits Acute Lung Injury. Inflammation and sepsis induce the release of endothelial cell microparticles (EMPs). Increased production of EMPs is hypothesized to play a causal role in the mechanisms mediating acute lung injury (ALI). To test this hypothesis, the inventors incubated human umbilical vein endothelial cells with PAI-1, which is well-recognized for inducing endothelial cells to generate EMPs. The EMPs were collected by ultracentrifugation, resuspended in physiological saline solution and then labeled with Q-dots. The Q-dot labeled EMPs were counted and then injected into C57BL/6J mice to achieve a final concentration of 100,000 EMPs/mL of blood. Mice were pretreated with phosphate buffered saline (Fig. 6) or KYC and then were injected with Q-dot labeled EMPs alone or Q-dot labeled EMPs plus KYC (Fig. 6).

## CC(=O)N[C@@H](CCCCN)C(=O)N[C@@H](Cc1ccc(O)cc1)C(=O)N[C@@H](CS)C(N)=O [KYC, N-acetyl Lysyltyrosylcysteine amide] (Ac-Lys-Tyr-Cys-NH2)
BAEC; 25 µM, higher MPO (5 µg/ml) or H2O2 (100 µM), data not shown
  protection of BAEC from MPO-induced injury (morphology): protected BAEC from even higher concentrations of MPO
BAEC; 50 µM, MPO 2.5 µg/ml, H2O2 50 µM
  protection of BAEC from MPO-induced injury (morphology): almost the same morphology as cultures that were not exposed to MPO
SCD mice
  WBC counts: more than half; also recorded: reduced by half
[1]; H&E
  eosinophil infiltration in the lungs: markedly reduce eosinophil infiltration to essentially control levels
[1]; McLetchie trichrome
  collagen deposition in the lungs: markedly reduces collagen deposition to control levels
C57BL/6J mice
  pulmonary retention of Q-dot labeled EMPs: dramatically decreases pulmonary retention

From patent EP2873675A1, “Peptide-based peroxidase inhibitors and methods of using same” (The Medical College of Wisconsin, Inc., priority 2013, dated 2015)
